Source: patent publication US11485701B2, “Insect repellent compounds and compositions, and methods thereof” (Iowa State University Research Foundation, Inc., priority 2016, dated 2022)
Where a name gives a salt, the structure may show the parent alone. Read-outs that look alike come from different tables or passages of the source.

System: Northern house mosquitoes (Culex pipiens)
Experiment: Short-term spatial repellency, static air repellency chamber
Type: in vivo
Conditions: for Short-term repellency at low concentration, in words: filter paper treated with 0.1%; for pest or weed control at 0.5 %: Culex pipiens
Procedure: Northern house mosquitoes (Culex pipiens), a primary carrier of West Nile virus in eastern North America, were obtained from an established colony in the Medical Entomology Laboratory in the Department of Entomology at Iowa State University of Science and Technology, Ames Iowa. Mosquito rearing was performed by established protocols that are maintained by the Medical Entomology Laboratory. Repellency bioassays were performed with adult female mosquitoes that emerged 5-7 days previously. […] Mosquitoes, prior to testing, were held at 27° C., 80% relative humidity, and on a 16:8 hr light:dark photoperiod.
Repellency bioassays were performed using a static air repellency chamber, which has been described in various publications by the Pesticide Toxicology Laboratory at Iowa State University of Science and Technology, Ames, Iowa Briefly, a 9-cm×60-cm glass tube was used to monitor the distribution of mosquitoes at 15 min, 30 min, 60 min, 90 min, 120 min, and 150 min after introducing mosquitoes into the static air repellency chamber. […] One end of the spatial chamber contained a treated filter paper, whereas the other (untreated) end of the spatial chamber was not treated with compound. Controls contained filter papers treated with acetone, the solvent used to make the 0.5% solutions. Each end of the repellency chamber was secured with a 100-mm Petri dish using celluloid tape. After securing the petri dishes with corresponding treated or untreated filter papers to the spatial chamber, mosquitoes were anesthetized with carbon dioxide, and approximately 20 female mosquitoes were placed into each repellency chamber for one replicate. The opening of the spatial repellency chamber was secured with celluloid tape to prevent their escape. Chambers were oriented in opposite directions from the previous replicate to account for any directional effect. Four replicates were performed for data analysis for both the control and treatment groups.
Data for spatial repellency, the percentage repellency, is reported at each of the respective time points in the figures and tables mentioned below. The percentage spatial repellency is the examination of the distribution of mosquitoes and is calculated using the following equation: […]

[1] = 0.25 h, filter paper, 1 mL of 0.5% solution in acetone, air-dried 15 min, 15 min after introduction, read-out: Short-term Percentage repellency 15 min
[2] = 1.5 h, filter paper, 1 mL of 0.5% solution in acetone, air-dried 15 min, 90 min, read-out: Short-term Percentage repellency 90 min
[3] = 2.5 h, filter paper, 1 mL of 0.5% solution in acetone, air-dried 15 min, 150 min, read-out: Short-term Percentage repellency 150 min

SMILES | Short-term percentage repellency 150 min at 1/5 the concentration (0.1% (1/5 of 0.5%), 150 minutes, FIG. 6) | Short-term repellency at low concentration, in words (FIG. 6) | pest or weed control at 0.5 % [1] [%] | pest or weed control at 0.5 % [2] [%] | pest or weed control at 0.5 % [3] [%] | pest or weed control at 0.5 % (0.25 h, read-out: Short-term Percentage repellency 15 min) [%]
CC(C)=CCCC(C)CCOC(=O)C1CCC1 (stereo not shown) [Citronellyl cyclobutanecarboxylate] | approximately 90% | significant levels of repellency | – | – | – | –
CC(C)=CCCC(C)CC(=O)OCCO (stereo not shown) [Compound 1052, 2-hydroxyethyl citronellate] | – | – | 77.5 | 92.5 | 82.5 | –
Cc1cc(OC(=O)C2CC2)c(C(C)C)cc1[N+](=O)[O-] [Compound 1066B, 4-nitrothymyl cyclopropanecarboxylate] | – | – | 37.5 | 57.5 | 70 | –
Cc1cc(OC(=O)C2CC2)c(C(C)C)cc1Br [Compound 1075B, 4-bromothymyl cyclopropanecarboxylate] | – | – | 47.5 | 32.5 | 30 | –
C=CCc1ccc(OC(=O)CC(C)C)c(OC)c1 [Compound 1076A, eugenyl isovalerate] | – | – | 17.5 | – | – | –
Cc1ccc(C(C)C)cc1OC(=O)CC(C)C [Compound 1079C, carvacryl isovalerate] | – | – | -10 | 87.5 | 95 | –
CC(C)=CCCC(C)CCOC=O (stereo not shown) [Compound 1089, citronellyl formate] | – | – | 77.5 | 92.5 | 90 | –
CC(=O)OCCOC(=O)C=Cc1ccccc1 [Compound 1105, 2-acetoxyethyl cinnamate] | – | – | 30 | 15 | 10 | –
Cc1cc(OC(=O)C(C)C)c(C(C)C)cc1Cl [Compound 1144B, chlorothymyl isobutyrate] | – | – | 40 | 77.5 | 87.5 | –
CC(C)=CCCC(C)CC(=O)OCC1CCC1 (stereo not shown) [Compound 2026, cyclobutylmethyl citronellate] | – | – | 25 | 37.5 | 25 | –
O=C(OC/C=C/c1ccccc1)C1CC1 [Compound 2038, cinnamyl cyclopropanecarboxylate] | – | – | 40 | 57.5 | 60 | –
CC(C)=CCCC(C)CCOC(=O)C=C(C)C (stereo not shown) [Compound 2105, citronellyl 3,3-dimethylacrylate] | – | – | 45 | 75 | 65 | –
CC(C)=CCC/C(C)=C\COC(=O)C1(C)CCC1 [Compound 2108, neryl 1-methylcyclobutanecarboxylate] | – | – | 60 | 90 | 85 | –
C=CC(C)(CCC=C(C)C)OC(=O)CC(C)C (stereo not shown) [Compound 2152, linalyl isovalerate] | – | – | 15 | 82.5 | 92.5 | –
C=C(C)CCOC(=O)CC(C)CCC=C(C)C (stereo not shown) [Compound 2168, isoprenyl citronellate] | – | – | 27.5 | 62.5 | 72.5 | –
C#CC(C)(C)OC(=O)CC(C)CCC=C(C)C (stereo not shown) [Compound 2171, 1,1-dimethylpropargyl citronellate] | – | – | 37.5 | 67.5 | 62.5 | –
CC(C)=CCCC(C)CCOC(=O)c1cccs1 (stereo not shown) [Compound 2180, Citronellyl thiophene-2-carboxylate] | – | – | 0 | 37.5 | 45 | –
CC(C)=CCCC(C)CCOC(=O)c1ccccc1 (stereo not shown) [Compound 2189, citronellyl benzoate] | – | – | 6.5 | 17.5 | 27.5 | –

SMILES | Short-term percentage repellency 150 min at 1/5 the concentration (0.1% (1/5 of 0.5%), 150 minutes, FIG. 6) | Short-term repellency at low concentration, in words (FIG. 6) | pest or weed control at 0.5 % [1] [%] | pest or weed control at 0.5 % [2] [%] | pest or weed control at 0.5 % [3] [%] | pest or weed control at 0.5 % (0.25 h, read-out: Short-term Percentage repellency 15 min) [%]
Cc1ccc(C(C)C)c(OC(=O)C(F)F)c1 [Compound 2194, thymyl difluoroacetate] | – | – | – | – | – | 20
CC(C)=CCCC(C)CCOC(=O)CC#N (stereo not shown) [Compound 2198, citronellyl cyanoacetate] | – | – | 37.5 | 32.5 | 40 | –
CCCCCCC(=O)OCCC(C)CCC=C(C)C (stereo not shown) [Compound 2203, citronellyl hexanecarboxylate] | – | – | 0 | 10 | 20 | –
CC(C)=CCCC(C)CCOC(=O)C(C)(C)F (stereo not shown) [Compound 2208, citronellyl 2-fluoroisobutyrate] | – | – | 37.5 | 75 | 77.5 | –
CC1CCC(C(C)C)C(OC(=O)C2(C)CCC2)C1 (stereo not shown) [Compound 2210, menthyl 1-methylcyclobutanecarboxylate] | – | – | -5 | 62.5 | – | –
CC(C)=CCCC(C)CCOC(=O)CC1CC1 (stereo not shown) [Compound 2229, citronellyl cyclopropylacetate] | – | significant levels of repellency | – | – | – | –
CC(C)=CCCC(C)CCOC(=O)C(C)(F)F (stereo not shown) [Compound 2232, citronellyl 2,2-difluoropropanoate] | – | – | 50 | 82.5 | 82.5 | –
CC(C)=CCCC(C)CCOC(=O)CC(F)(F)F (stereo not shown) [Compound 2235, citronellyl 3,3,3-trifluoropropanoate] | – | – | 12.5 | 62.5 | 77.5 | –
CC(C)=CCCC(C)CCOC(=O)Cc1cccs1 (stereo not shown) [Compound 2244, citronellyl thiophen-2-ylacetate] | – | – | 32.5 | 45 | 55 | –
CC1CCC(C(C)C)C(OC(=O)Cc2cccs2)C1 (stereo not shown) [Compound 2245, menthyl thiophen-2-ylacetate] | – | – | -35 | 35 | 57.5 | –
CC(C)=CCC/C(C)=C/COC(=O)CC(C)C [Compound 2255A, geranyl isovalerate] | – | – | 35 | 60 | 52.5 | –
CC(C)=CCC/C(C)=C\COC(=O)CC(C)C [Compound 2255B, neryl isovalerate] | – | – | 7.5 | 75 | 80 | –
CC(C)CC(=O)OC1CC(C)CCC1C(C)C (stereo not shown) [Compound 2256, menthyl isovalerate] | – | – | 37.5 | 42.5 | 27.5 | –
CC1=CCC(C(C)(C)OC(=O)CC(C)C)CC1 (stereo not drawn) [Compound 2257, alpha-terpinyl isovalerate] | – | – | 10 | 55 | 65 | –
CC(C)CC(=O)OCC1=CCC2CC1C2(C)C (stereo not shown) [Compound 2258, myrteryl isovalerate] | – | – | 35 | 85 | 87.5 | –
CC(C)=CCCC(C)CCOC(=O)C1CC(F)(F)C1 (stereo not shown) [Compound 3069, citronellyl 3,3-difluorocyclobutanecarboxylate] | – | – | 2.5 | 20 | 27.5 | –
CC(C)=CCCC(C)CC(=O)OCC1(C)COC1 (stereo not shown) [Compound 3070, (3-methyloxetan-3-yl) methyl citronellate] | – | – | 15 | 42.5 | 32.5 | –
CC(C)=CCCC(C)CC(=O)OC1COC1 (stereo not shown) [Compound 3071, 3-oxetanyl citronellate] | – | – | 2.5 | 37.5 | 40 | –
